These results are taken from patent EP1267623B1, “ACYCLIC MONOTERPENES AS ANTI-SPROUTING AGENTS FOR POTATO TUBERS” (COUNCIL OF SCIENTIFIC & INDUSTRIAL RESEARCH; An Indian …, priority 2000, dated 2001).

What all share (type): in vivo
Test [1] concerns potato tubers. Description: Sprout inhibition by dipping in geraniol and citral at different concentrations (Example 4). The note with it: for % eyes sprouted: dipping 5 hours, then 12 days in jars; for sprouting till 20 days after treatment: experiment continued till 20 days after treatment (6 and 8 mM). The procedure: Tubers were treated with geraniol and citral the two promising chemicals at different concentrations. The terpenes were applied at 4mM, 6mM and 8m M for 5 hours by dipping the tubers and then the tubers were kept in jars for 12 days.

For test [2], the system named is potato tubers. Description: Sprout inhibition by exposure to vapours of volatilized compounds for seven days (Example 6). The note with it: for % eyes sprouted: exposed to vapours (1 ml on filter paper, saturated atmosphere) for seven days, 14 days after removal; for sprouting 18 days after removal from treatment flask: exposed to vapours for seven days. The source says: Tubers treated with emulsions of different aromatic compounds remained dormant. Therefore, it was tried to find out the response when tubers were exposed to vapours of volatilized compounds for sprout inhibition. Substantially pure compounds were used as in other examples. Six potatoes were placed in air tight jars containing 9 cm piece of filter paper saturated with one ml of the liquid compound. These amounts were sufficient to produce a saturated atmosphere in the flask. The filter paper was placed in the cap of the flask so that no direct physical contact with the tuber occurred. The tubers were removed after seven days and placed in flasks containing fresh air at ambient temperature. Control tubers were placed in sealed flask lacking any added compound. […] Such short term treatment would greatly lessen costs to the potato industry.

For test [3], the system named is potato tubers. Description: Sprout inhibition after dipping tubers in 8 mM emulsions of purified compounds (Example 3). The note with it: for % eyes sprouted: 8 mM emulsion with Tween 20, dipping 5 hours, then 10 days in jars at ambient temperature; for dormancy of tubers under repeated treatment: emulsion, dipped 5 hours, kept 10 days, then dipped again, after two months. How it is done:
Therefore essential oils were purified by column chromatography and substantially pure compounds were used.
Emulsion of the compounds were prepared of 8 mM concentration of each compound in distilled water containing 2x10-6 % Tween 20 as emulsifier ( control tubers were treated with Tween 20 only). Tubers were treated by dipping each tuber in emulsion for 5 hours, where upon excess liquid was allowed to drain off. Six tubers per treatment were used, with two replicates, and all experiments were repeated once. Tubers were then kept in jars for 10 days at ambient temperature. Tubers were then evaluated as in example 1 & 2 for percentage of sprouted eyes, tuber texture and fungal growth.
Geranyl acetate inhibited sprouting by 42%. […] A&M plants 3 (3) no. 1452 pp 183].
Geraniol, citral, citranellol, citranellal and menthyl acetate were as effective as reported monoterpenes such as benzaldehyde, cinnamaldehyde, eugenol and thymol (U.S.patent no. 5,129,951).

Test [4] has as its system potato tubers. Description: Sprout inhibition by dipping in combinations of monoterpenes and other compounds (Example 5). The note with it: dipping five hours in aqueous solution with Tween 20, 4-8 mM. The procedure:
Combination of 4-8 mM of each geraniol, citral , citronella and citronellal were tried to determine the best combination. Along with this some other compounds were also tried. The terpenes were applied by dipping the tubers for five hours in aqueous solution of the monoterpenes containing Tween 20 as emulsifying agent. […] Other chemicals were not very effective. Results are given in table 5.Menthol, anisaldehyde, thymol, cinnamom bark oil and thymol has been used earlier (U.S. Patent No. 5,129,951 ) and were effective.

For test [5], the system named is potato tubers. Description: Sprout inhibition by exposure to fumes of citral from a vaporizer for 1, 2 or 4 days (Example 7). The settings on record: 14 days after treatment. How it is done:
The tubers were exposed to fumes of citral with the help of a vaporizer at ambient temperature in a close atmosphere for 24 hour, 48 hour and 96 hours. The tubers were then placed in flask containing fresh air and free of any additional volatilized compound. Control tubers were placed in sealed flasks lacking any added compounds. Fourteen days after treatment all tubers examined for percentage of eyes sprouted, tuber texture and fungal growth. 7

The mark [6] stands for this setting: 8 mM emulsion, dipping 5 hours, 10 days.

Each structure is given as a SMILES string.

On to `CC(C)=CCC/C(C)=C/CO` [Geraniol], for which the “% eyes sprouted” value was 7.5% in test [1] (4mM); 0.0% in test [1] (6mM); 0.0% in test [1] (8 mM); 0.0% in test [2]; 16% in test [3]. Moreover, the “sprouting till 20 days after treatment” value in test [1] is on record as “sprouting was not observed”. In addition, the “sprouting 18 days after removal from treatment flask” value (shortened to “sprouting 18 days after removal”) in test [2] was “remained unsprouted”. Also, in test [3] (setting [6]), the “effect on tuber sprouting (in words)” value is “completely inhibited sprouting”. Moreover, the “dormancy of tubers under repeated treatment” value in test [3] is given as “completely dormant”.
With `CC(=O)OC1CC(C)CCC1C(C)C` (stereo not drawn) [Menthyl acetate], in test [4], the “% eyes sprouted After 3 days” value was determined as 0.0%, the “% eyes sprouted after 7 days” value was found to be 0.0% and the “% eyes sprouted after 14 days” value is reported as 0.0%. Besides, in test [2], the “% eyes sprouted” value came to 0.0% and the “sprouting 18 days after removal” value is listed as “remained unsprouted”.
For `CC(C)=CCCC(C)=CC=O` [Citral], the “% eyes sprouted” value in test [1] (4mM) amounted to 4.1%; in test [1] (6mM), 0.0%; in test [1] (8 mM) it was 0.0%; in test [5] (exposure to fumes for 1 Day (24 hour)), 18.5%; in test [5] (exposure to fumes for 2 Days (48 hour)) it was 8.3%; in test [5] (exposure to fumes for 4 Days (96 hours)), 0.0%. The “% eyes sprouted” value in test [2] came out at 0.0%; in test [3], 19%. Further, the “sprouting till 20 days after treatment” value in test [1] is listed as “sprouting was not observed”. The “sprouting 18 days after removal” value in test [2] is on record as “remained unsprouted”. Further, in test [3] (setting [6]), the “effect on tuber sprouting (in words)” value is listed as “completely inhibited sprouting”. The “dormancy of tubers under repeated treatment” value in test [3] is “completely dormant”.
For the molecule `CC12CCC(CC1=O)C2(C)C` (stereo not drawn) [Camphor], the “% eyes sprouted” value in test [3] is 89%. For the same molecule, the “effect on tuber sprouting (in words)” value in test [3] (setting [6]) is “no significant effect”.
Regarding `CC=Cc1ccc(OC)cc1` [Anethol], in test [4], the “% eyes sprouted After 3 days” value was determined as 0.0%, the “% eyes sprouted after 7 days” value was 0.0% and the “% eyes sprouted after 14 days” value was determined as 51%.
With `CC1CCC(C(C)C)C(O)C1` (stereo not drawn) [Menthol], in test [4], the “% eyes sprouted After 3 days” value stood at 29%, the “% eyes sprouted after 7 days” value was 29% and the “% eyes sprouted after 14 days” value is on record as 29%.
Turning to `CC(=O)OC/C=C(\C)CCC=C(C)C` [Geranyl acetate], the “% eyes sprouted” value in test [3] was found to be 58%. In addition, the “inhibited sprouting by” value in test [3] (setting [6]) came to 42%.
In the case of `C=CC(C)(O)CCC=C(C)C` (stereo not drawn) [Linalool], in test [3], the “% eyes sprouted” value came out at 100%. The “effect on tuber sprouting (in words)” value in test [3] (setting [6]) is “no significant effect”.
Consider `C=C(C)[C@H]1CC=C(C)C(=O)C1` [d-carvone], for which, in test [3], the “% eyes sprouted” value was found to be 93%. In addition, in test [3] (setting [6]), the “effect on tuber sprouting (in words)” value is on record as “no significant effect”.
As for `COc1ccc(C=O)cc1` [Anisaldehyde], in test [4], the “% eyes sprouted After 3 days” value turned out to be 78%, the “% eyes sprouted after 7 days” value amounted to 96% and the “% eyes sprouted after 14 days” value amounted to 96%.
On to `C=C(C)[C@@H]1CC=C(C)C(=O)C1` [I-carvone], for which the “% eyes sprouted” value in test [3] turned out to be 100%. For the same molecule, in test [3] (setting [6]), the “effect on tuber sprouting (in words)” value is “no significant effect”.
Take `Cc1ccc(C(C)C)c(O)c1` [Thymol]: in test [4], the “% eyes sprouted After 3 days” value stood at 79%, the “% eyes sprouted after 7 days” value is reported as 98% and the “% eyes sprouted after 14 days” value was determined as 98%.
Consider `CC(C)=CCCC(C)CC=O` (stereo not drawn) [citronellal], for which, in test [2], the “% eyes sprouted” value is reported as 0.0% and the “sprouting 18 days after removal” value was “remained unsprouted”.
As for `CC(C)=CCC[C@H](C)CCO` [l-citronellol], the “% eyes sprouted” value in test [3] is on record as 0.0%.
For `CC(C)=CCC[C@@H](C)CCO` [d-citronellol], in test [2], the “% eyes sprouted” value was 0.0% and the “sprouting 18 days after removal” value is “remained unsprouted”. In addition, in test [3], the “% eyes sprouted” value was found to be 17%.
